Where “and” joins values, the source holds several entries; their conditions need not be identical. Identical values can stand only once. Marks after values point to notes of the source that are not given here.
Experiments:
[1] = system: A549 (human lung carcinoma); test: In vitro cytotoxicity, MTT test; type: cell-based; details: Homo sapiens, A549, 72 h, MTT, 72 h; read-out: Cytotoxicity IC50, A549
Method: (§1) Anticancer activity of selenopheno[h]chromenes was tested in vitro using cytotoxicity assay. […] About 2-9·10^4 cells/mL (depending on line nature) were placed in 96-well plates immediately after compounds were added to the wells. Untreated cells were used as a control. The plates were incubated for 72 h, 37° C., 5% CO2. The number of surviving cells was determined using 3-(4,5-dimethylthiazol-2-yl)-2,5-diphenyltetrazolinium bromide (MTT). MTT-test: after incubating culture medium was removed and 200 μL fresh medium with 10 mM HEPES was added in each well of the plate, than 20 μL MTT (2 mg/mL in HBSS) was added. After incubation (3 hr, 37° C., 5% CO2), the medium with MTT was removed and 200 μL DMSO were added at once to each sample. The samples were tested at 540 nm on Anthos HT II photometer.

CCL-8 (mouse sarcoma) = test: In vitro cytotoxicity, MTT test; type: cell-based; details: MTT, 72 h, read-out: Cytotoxicity IC50, CCL-8
Method: as §1

[2] = system: HT-1080 (human fibrosarcoma); test: In vitro cytotoxicity, MTT test; type: cell-based; details: HT-1080, MTT, 72 h, read-out: Cytotoxicity IC50, HT-1080
Method: as §1

[3] = system: HepG2 (human hepatocellular carcinoma); test: In vitro cytotoxicity, MTT test; type: cell-based; details: HepG2, MTT, 72 h, read-out: Cytotoxicity IC50, HepG2
Method: as §1

[4] = system: MCF-7 (human breast adenocarcinoma, estrogen-positive); test: In vitro cytotoxicity, MTT test; type: cell-based; details: MCF7, MTT, 72 h, read-out: Cytotoxicity IC50, MCF-7
Method: as §1

[5] = system: MDA-MB-435s (human melanoma); test: In vitro cytotoxicity, MTT test; type: cell-based; details: MTT, 72 h, read-out: Cytotoxicity IC50, MDA-MB-435s
Method: as §1

[6] = system: MES-SA (human uterus sarcoma); test: In vitro cytotoxicity, MTT test; type: cell-based; details: MTT, 72 h, read-out: Cytotoxicity IC50, MES-SA
Method: as §1

MG-22A (mouse hepatoma) = test: In vitro cytotoxicity, MTT test; type: cell-based; details: MTT, 72 h, read-out: Cytotoxicity IC50, MG-22A
Method: as §1

[7] = system: SH-SY5Y (human neuroblastoma); test: In vitro cytotoxicity, MTT test; type: cell-based; details: Homo sapiens, SH-SY5Y, 72 h, MTT, read-out: Cytotoxicity IC50, SHSY5Y
Method: as §1

[8] = Basal cytotoxicity test, Neutral Red Uptake (NRU) assay; type: cell-based
Method: (§2) In parallel, the borderline concentration relevant to the highest tolerated dose has been determined for each compound using the NIH 3T3 (mouse embryo fibroblasts) cell line and the basal cytotoxicity obtained has then been used to predict the starting doses for in vivo acute oral LD50 values in rodents.
(§3) the Neutral Red Uptake (NRU) assay was performed according to the standard protocol of Stokes modified by the NICEATM-ECVAM validation study. The NRU cytotoxicity assay procedure is based on the ability of viable cells to incorporate and bind Neutral Red, a supravitally dye. Balb/c 3T3 (Mouse Swiss Albino embryo fibroblast) cells (9000 cells/well) were placed into 96-well plates for 24 h in Dulbecco's modified Eagle's (DMEM) medium containing 5% fetal bovine serum. The cells were then exposed to the test compounds over a range of […] concentrations (1000, 316, 100, 31, 10, 3, 1 μg/ml) for 24 h. Untreated cells were used as a control. After 24 h, the medium was removed from all plates. Then, 250 μL of Neutral Red solution were added (0.05 mg/mL NR in DMEM 24 h pre-incubated at 37° C. and then filtered before use through 0.22-μm syringe filter). Plates were incubated for 3 h and then cells were washed three times with PBS. The dye within viable cells was released by extraction with a mixture of acetic acid, ethanol and water (1:50:49). Absorbance of Neutral Red was measured using a spectrophotometer multiplate reader (TECAN, Infinite M1000) at 540 nm. The percentage of living cells was calculated using the formula: OD (treated cells)*100/OD (control cells). The IC50 values were calculated using the programme Graph Pad Prism® 3.0.
(§4) Data from the in vitro tests were used for estimating the starting dose for acute oral systemic toxicity tests in rodents. […] The value is recalculated to mg/kg and compounds are evaluated in accordance with four toxicity categories: category 1: LD50≤5 mg/kg (highly toxic); category 2: 5<LD50≤50 mg/kg (moderately toxic); category 3: 50<LD50≤300 mg/kg (slightly toxic); category 4: 300<LD50≤2 000 mg/kg (practically non-toxic).

[9] = system: 3T3 (mouse embryo fibroblasts); test: as above; type: cell-based
Method: as §2, §3, §4

[10] = system: mouse sarcoma CCRF-S180 II (CCL-8); test: Mouse non-metastatic cancer model, sarcoma CCL-8 s.c. in ICR mice; type: in vivo; details: s.c. Day 1, 2, 3, 4, 7, 8, 9, 10, 11; dose 5 mg/kg, total dose 45 mg/kg
Method: Six-week-old female ICR and BALB/c mice were purchased from the University of Tartu Laboratory Animal Centre (Estonia). The mice were housed five to a cage, and under standard conditions (21-23° C., 12 h light: dark cycle), fed ad libitum (R3 diet, Lactamin AB, Kimstad, Sweden) and observed daily. The experimental procedures involving experimental animals were carried out in accordance with the guidelines of the European Community, local laws and policies, and were approved by the Latvian Animal Protection Ethical Committee, the Food and Veterinary Service, Riga, Latvia.
In vivo studies were performed utilizing the mouse sarcoma CCRF-S180 II (CCL-8) and Lewis lung carcinoma (LLC) cell line. All cell lines were purchased from ATCC. The cells were grown in Dulbecco's modified Eagle's medium (Sigma) supplemented with 10% fetal calf serum (Sigma).
ICR mice were subcutaneously inoculated in the back with 5×10^6 CCL-8 cells and BALB/c mice were inoculated with 1×10^6 LLC (Lewis Lung Carcinoma) cells, which were suspended in 0.1 mL of PBS on day zero of the study. The compounds dissolved in DMSO and then in 0.1 mL water (DMSO final concentration 1%) were injected s.c. Mice in the untreated group were similarly given doses of 0.1 mL of water with DMSO. Tumor volume (tumor volume V=[…], a is maximal and b the minimal tumor diameter) was recorded twice per week. The mice were examined every other day for diseases including appearance, weight and behavior. The mice were sacrificed at day 16 of the experiment by decapitation after ketamine/xylazine anesthesia.

malignant tumor cells = test: In vitro cytotoxicity on monolayer tumor cell lines (panel, summary in words); type: cell-based; details: summary of Table 1
Method: Anticancer activity of selenopheno[h]chromenes was tested in vitro using cytotoxicity assay. Thus, monolayer tumor cell lines MDA-MB-435s (human melanoma), MCF-7 (human breast adenocarcinoma, estrogen-positive), MES-SA (human uterus sarcoma), HT-1080 (human fibrosarcoma), A549 (human lung carcinoma), SH-SY5Y (human neuroblastoma), CCL-8 (mouse sarcoma), MG-22A (mouse hepatoma), and HepG2 (human hepatocellular carcinoma) were cultured in standard medium DMEM (Dulbecco's modified Eagle's medium) (“Sigma”) supplemented with 10% fetal bovine serum (“Sigma”). About 2-9·10^4 cells/mL (depending on line nature) were placed in 96-well plates immediately after compounds were added to the wells. Untreated cells were used as a control. The plates were incubated for 72 h, 37° C., 5% CO2. The number of surviving cells was determined using 3-(4,5-dimethylthiazol-2-yl)-2,5-diphenyltetrazolinium bromide (MTT). MTT-test: after incubating culture medium was removed and 200 μL fresh medium with 10 mM HEPES was added in each well of the plate, than 20 μL MTT (2 mg/mL in HBSS) was added. After incubation (3 hr, 37° C., 5% CO2), the medium with MTT was removed and 200 μL DMSO were added at once to each sample. The samples were tested at 540 nm on Anthos HT II photometer.

Which results are given for `COC(=O)c1cc2ccc3c(Br)c(CN4CCOCC4)[se]c3c2oc1=O` [Compound I-9, Methyl 7-bromo-8-(morpholinomethyl)-2-oxo-2H-selenopheno[3,2-h]chromene-3-carboxylate]?
IC50 [1]: 86 ± 6 µM; IC50 (CCL-8 (mouse sarcoma)): 84 ± 6 µM; IC50 [2]: 86 ± 6 µM; IC50 [3]: 90 ± 6 µM; IC50 [4]: 81 ± 6 µM; IC50 [5]: 67 ± 8 µM; IC50 [6]: 54 ± 7 µM; IC50 (MG-22A (mouse hepatoma)): 48 ± 3 µM; IC50 [7]: 46 ± 9 µM; LD50 at 24 h ([8]; mouse, po, acute oral LD50 calculated from 3T3 NRU IC50 by regression formula, read-out: Basal cytotoxicity Estimated* LD50): 2400 µmol/kg and 1250 mg/kg; IC50 at 24 h ([8]; normal mouse embryo fibroblasts, read-out: Cytotoxicity IC50, 3T3): 56 ± 3 µM; Toxicity against normal NIH 3T3 cells [9]: the most toxic among studied chromenes; Anticancer activity in vivo (inhibition, %), CCL-8 tumor volume [10]: 38** %; Cytotoxicity on cancer cell lines (malignant tumor cells): medium cytotoxicity
